This is an account of results in US9963464B2, “Macrocyclic compounds” (Bayer Pharma Aktiengesellschaft, priority 2014, dated 2018).

Where two headings read alike, the source gives them in different places. Bounds are passed on as bounds.

One assay has as its system Caco-2 cells. Put plainly: Proliferation assay Caco-2. The conditions noted are these: 4 days, crystal violet, read-out: Inhibition of Caco-2 cell proliferation IC50. The class given is cell-based, human. The method, then: Cultivated tumour cells (HeLa, human cervical tumour cells, ATCC CCL-2; NCI-H460, human non-small cell lung carcinoma cells, ATCC HTB-177; A2780, human ovarian carcinoma cells, ECACC #93112519; DU 145, hormone-independent human prostate carcinoma cells, ATCC HTB-81; HeLa-MaTu-ADR, multidrug-resistant human cervical carcinoma cells, EPO-GmbH Berlin; Caco-2, human colorectal carcinoma cells, ATCC HTB-37; B16F10, mouse melanoma cells, ATCC CRL-6475) were plated at a density of 5,000 cells/well (DU145, HeLa-MaTu-ADR), 3,000 cells/well (NCI-H460, HeLa), 2,500 cells/well (A2780), 1,500 cells/well (Caco-2), or 1,000 cells/well (B16F10) in a 96-well multititer plate in 200 μL of their respective growth medium supplemented 10% fetal calf serum. After 24 hours, the cells of one plate (zero-point plate) were stained with crystal violet (see below), while the medium of the other plates was replaced by fresh culture medium (200 μl), to which the test substances were added in various concentrations (0 μM, as well as in the range of 0.001-10 μM). The cells were incubated for 4 days in the presence of test substances. Cell proliferation was determined by staining the cells with crystal violet: the cells were fixed by adding 20 μl/measuring point of an 11% glutaric aldehyde solution for 15 minutes at room temperature. After three washing cycles of the fixed cells with water, the plates were dried at room temperature. The cells were stained by adding 100 μl/measuring point of a 0.1% crystal violet solution (pH 3.0). After three washing cycles of the stained cells with water, the plates were dried at room temperature. The dye was dissolved by adding 100 μl/measuring point of a 10% acetic acid solution. The extinction was determined by photometry at a wavelength of 595 nm. The change of cell number, in percent, was calculated by normalization of the measured values to the extinction values of the zero-point plate (=0%) and the extinction of the untreated (0 μm) cells (=100%). The IC50 values (inhibitory concentration at 50% of maximal effect) were determined by means of a 4 parameter fit. Non-adherent MOLM-13 human acute myeloid leukemia cells (DSMZ ACC 554) were seeded at a density of 5,000 cells/well in a 96-well multititer plate in 100 μL of growth medium supplemented 10% fetal calf serum. After 24 hours, cell viability of one plate (zero-point plate) was determined with the Cell Titre-Glo Luminescent Cell Viability Assay (Promega), while 50 μL of test compound containing medium was added to the wells of the other plates (final concentrations in the range of 0.001-1 μM and DMSO controls). Cell viability was assessed after 72-hour exposure with the Cell Titre-Glo Luminescent Cell Viability Assay (Promega). IC50 values (inhibitory concentration at 50% of maximal effect) were determined by means of a 4 parameter fit on measurement data which were normalized to vehicle (DMSO) treated cells (=100%) and measurement readings taken immediately before compound exposure (=0%).

A further assay has as its target T1, CDK2/CycE (Homo sapiens, UniProt P24941).
T1 construct: GST; purchased ProQinase GmbH (Freiburg, Germany); host or cells: insect cells (Sf9)
Description: CDK2/CycE high ATP kinase assay (TR-FRET, Method 2b). It is filed as biochemical. Particulars: 2 mM ATP. The method, then: 2b. CDK2/CycE High ATP Kinase Assay:
CDK2/CycE-inhibitory activity of compounds of the present invention at 2 mM adenosine-tri-phosphate (ATP) was quantified employing the CDK2/CycE TR-FRET (TR-FRET=Time Resolved Fluorescence Resonance Energy Transfer) assay as described in the following paragraphs.
Recombinant fusion proteins of GST and human CDK2 and of GST and human CycE, expressed in insect cells (Sf9) and purified by Glutathion-Sepharose affinity chromatography, were purchase from ProQinase GmbH (Freiburg, Germany). As substrate for the kinase reaction biotinylated peptide biotin-Ttds-YISPLKSPYKISEG (C-terminus in amid form) was used which can be purchased e.g. from the company JERINI peptide technologies (Berlin, Germany).
For the assay 50 nl of a 100 fold concentrated solution of the test compound in DMSO was pipetted into a black low volume 384 well microtiter plate (Greiner Bio-One, Frickenhausen, Germany), 2 μl of a solution of CDK2/CycE in aqueous assay buffer [50 mM Tris/HCl pH 8.0, 10 mM MgCl2, 1.0 mM dithiothreitol, 0.1 mM sodium ortho-vanadate, 0.01% (v/v) Nonidet-P40 (Sigma)] were added and the mixture was incubated for 15 min at 22° C. to allow pre-binding of the test compounds to the enzyme before the start of the kinase reaction. […] The concentration of CDK2/CycE was adjusted depending of the activity of the enzyme lot and was chosen appropriate to have the assay in the linear range, typical concentrations were in the range of 15 ng/ml. The reaction was stopped by the addition of 5 μl of a solution of TR-FRET detection reagents (0.2 μM streptavidine-XL665 [Cisbio Bioassays, Codolet, France] and 1 nM anti-RB(pSer807/pSer811)-antibody from BD Pharmingen [#558389] and 1.2 nM LANCE EU-W1024 labeled anti-mouse IgG antibody [Perkin-Elmer, product no. AD0077, as an alternative a Terbium-cryptate-labeled anti-mouse IgG antibody from Cisbio Bioassays can be used]) in an aqueous EDTA-solution (100 mM EDTA, 0.2% (w/v) bovine serum albumin in 100 mM HEPES pH 7.5).
The resulting mixture was incubated 1 h at 22° C. to allow the formation of complex between the phosphorylated biotinylated peptide and the detection reagents. Subsequently the amount of phosphorylated substrate was evaluated by measurement of the resonance energy transfer from the Eu-chelate to the streptavidine-XL. Therefore, the fluorescence emissions at 620 nm and 665 nm after excitation at 350 nm were measured in a TR-FRET reader, e.g. a Rubystar (BMG Labtechnologies, Offenburg, Germany) or a Viewlux (Perkin-Elmer). The ratio of the emissions at 665 nm and at […] was taken as the measure for the amount of phosphorylated substrate. The data were normalised (enzyme reaction without inhibitor=0% inhibition, all other assay components but no enzyme=100% inhibition).

For `CS(=O)(=O)N=S(C)(=O)Cc1cc2nc(c1)OCCCOc1cc(F)ccc1-c1cc(ncc1F)N2` (racemic) [Example 22, (rac)-N-[{[15,19-difluoro-3,4-dihydro-2H,11H-10,6-(azeno)-12,16-(metheno)-1,5,11,13-benzodioxadiazacyclooctadecin-8-yl]methyl}(methyl)oxido-λ^6-sulfanylidene]methanesulfonamide], the IC50 in the assay on Caco-2 cells (Homo sapiens, Caco-2, 96 h) stood at 27 nM; on CDK2/CycE it was 195 nM.

As for `CS(=O)(Cc1cc2nc(c1)OCCCOc1cc(F)ccc1-c1cc(ncc1F)N2)=NS(=O)(=O)CCN` (racemic) [Example 23, (rac)-2-amino-N-[{[15,19-difluoro-3,4-dihydro-2H,11H-10,6-(azeno)-12,16-(metheno)-1,5,11,13-benzodioxadiazacyclooctadecin-8-yl]methyl}(methyl)oxido-λ^6-sulfanylidene]ethanesulfonamide], the IC50 with Caco-2 cells (Homo sapiens, Caco-2, 96 h) turned out to be 422 nM; at CDK2/CycE, 272 nM.

Take `CS(=O)(Cc1cc2nc(c1)OCCCOc1cc(F)ccc1-c1cc(ncc1F)N2)=NS(=O)(=O)CCN.O=C(O)C(F)(F)F` (racemic) [Example 24, (rac)-2-{[{[15,19-difluoro-3,4-dihydro-2H,11H-10,6-(azeno)-12,16-(metheno)-1,5,11,13-benzodioxadiazacyclooctadecin-8-yl]methyl}(methyl)oxido-λ^6-sulfanylidene]sulfamoyl}ethanaminium trifluoroacetate]: the IC50 in the assay with Caco-2 cells (trifluoroacetate) came to 267 nM; against CDK2/CycE, 166 nM.

`CS(=O)(Cc1cc2nc(c1)OCCCOc1cc(F)ccc1-c1cc(ncc1F)N2)=NC(=O)OCCN` (racemic) [Example 25, (rac)-2-aminoethyl [{[15,19-difluoro-3,4-dihydro-2H,11H-10,6-(azeno)-12,16-(metheno)-1,5,11,13-benzodioxadiazacyclooctadecin-8-yl]methyl}(methyl)oxido-λ^6-sulfanylidene]carbamate]: the IC50 with Caco-2 cells (Homo sapiens, Caco-2, 96 h) was found to be 47 nM; against CDK2/CycE, 18 nM.

Regarding `CS(=N)(=O)Cc1cc2nc(c1)OCCCOc1cc(F)ccc1-c1cc(ncc1F)N2` (single isomer, unassigned; enantiomer 1) [Example 6, 15,19-Difluoro-8-[(S-methylsulfonimidoyl)methyl]-3,4-dihydro-2H,11H-10,6-(azeno)-12,16-(metheno)-1,5,11,13-benzodioxadiazacyclooctadecine; Enantiomer 1], the IC50 with Caco-2 cells (Homo sapiens, Caco-2, 96 h) turned out to be 5 nM; against CDK2/CycE, 38.3 nM.

In the case of `CS(=N)(=O)Cc1cc2nc(c1)OCCCOc1cc(F)ccc1-c1cc(ncc1F)N2` (single isomer, unassigned; enantiomer 2) [Example 7, 15,19-Difluoro-8-[(S-methylsulfonimidoyl)methyl]-3,4-dihydro-2H,11H-10,6-(azeno)-12,16-(metheno)-1,5,11,13-benzodioxadiazacyclooctadecine; Enantiomer 2], the IC50 in the assay on Caco-2 cells was 6 nM; on CDK2/CycE, 50.4 nM.

Turning to `CSCc1cc2cc(c1)OCCCOc1cc(F)ccc1-c1nc(ncc1F)N2` [Example 2, 15,19-Difluoro-8-[(methylsulfanyl)methyl]-3,4-dihydro-2H,11H-12,16-(azeno)-10,6-(metheno)-1,5,11,13-benzodioxadiazacyclooctadecine], the IC50 in the assay with Caco-2 cells (Homo sapiens, Caco-2, 96 h) was 30 nM; on CDK2/CycE it was 640 nM.

As to `CSCc1cc2nc(c1)OCCCOc1cc(F)ccc1-c1cc(ncc1F)N2` [Example 3, 15,19-Difluoro-8-[(methylsulfanyl)methyl]-3,4-dihydro-2H,11H-10,6-(azeno)-12,16-(metheno)-1,5,11,13-benzodioxadiazacyclooctadecine], the IC50 in the assay with Caco-2 cells (Homo sapiens, Caco-2, 96 h) was under 30 nM; on CDK2/CycE, 128 nM.

As for `CS(=O)(=O)Cc1cc2nc(c1)OCCCOc1cc(F)ccc1-c1cc(ncc1F)N2` [Example 8, 15,19-difluoro-8-[(methylsulfonyl)methyl]-3,4-dihydro-2H,11H-10,6-(azeno)-12,16-(metheno)-1,5,11,13-benzodioxadiazacyclooctadecine], the IC50 in the assay on Caco-2 cells (Homo sapiens, Caco-2, 96 h) was found to be 11 nM; at CDK2/CycE, 33.6 nM.

As to `CSCc1cc2nc(c1)OCCOc1cc(F)ccc1-c1cc(ncc1F)N2` [Example 9, 14,18-Difluoro-7-[(methylsulfanyl)methyl]-2,3-dihydro-10H-9,5-(azeno)-11,15-(metheno)-1,4,10,12-benzodioxadiazacycloheptadecine], the IC50 with Caco-2 cells (Homo sapiens, Caco-2, 96 h) is 811 nM; against CDK2/CycE it was over 20000 nM.

Consider `CSCc1cc2nc(c1)OCCCCOc1cc(F)ccc1-c1cc(ncc1F)N2` [Example 12, 16,20-Difluoro-9-[(methylsulfanyl)methyl]-2,3,4,5-tetrahydro-12H-11,7-(azeno)-13,17-(metheno)-1,6,12,14-benzodioxadiazacyclononadecine], for which the IC50 in the assay with Caco-2 cells (Homo sapiens, Caco-2, 96 h) was 61 nM; against CDK2/CycE, 890 nM.

For `NCCS(=O)(=O)Cc1cc2nc(c1)OCCCOc1cc(F)ccc1-c1cc(ncc1F)N2` [Example 26, 2-({[15,19-difluoro-3,4-dihydro-2H,11H-10,6-(azeno)-12,16-(metheno)-1,5,11,13-benzodioxadiazacyclooctadecin-8-yl]methyl}sulfonyl)ethanamine], the IC50 with Caco-2 cells (Homo sapiens, Caco-2, 96 h) was 329 nM; against CDK2/CycE, 43.7 nM.

For the molecule “({[15,19-difluoro-3,4-dihydro-2H,11H-10,6-(azeno)-12,16-(metheno)-1,5,11,13-benzodioxadiazacyclooctadecin-8-yl]methyl}sulfonyl)acetic acid [Example 27]”, the results for the IC50 in the assay on Caco-2 cells and against CDK2/CycE were 2100 nM and 6.3 nM, respectively.
